The subject of the assay is HOFNH30. The assay can be described thus: Ca2+-mobilization FLIPR assay in RBL-2H3 cells stably expressing HOFNH30. Format: cell-based, human. The conditions noted are these: several clones of RBL-2H3 cells stably expressing HOFNH30, Fluo 3AM-loaded cells. An excerpt: One preferred screening method involves co-transfecting HEK-293 cells with a mammalian expression plasmid encoding a G-protein coupled receptor (GPCR), such as HOFNH30, along with a mixture comprised of mammalian expression plasmids cDNAs encoding Gα15 (Wilkie T. M. et al Proc Natl Acad Sci USA 1991 88:10049-10053), Gα16 (Amatruda T. T. et al Proc Natl Acad Sci USA 1991 8:5587-5591, and three chimeric G-proteins refered to as Gqi5, Gqs5, and Gqo5 (Conklin B R et al Nature 1993 363:274-276, Conklin B. R. et al Mol Pharmacol 1996 50:885-890). Following a 24 h incubation the transfected HEK-293 cells are plated into poly-D-lysine coated 96 well black/clear plates (Becton Dickinson, Bedford, Mass.). The cells are assayed on FLIPR (Fluorescent Imaging Plate Reader, Molecular Devices, Sunnyvale, Calif.) for a calcium mobilization response following addition of test ligands. […]
A microtitre plate based Ca2^+-miobilization FLIPR assay (Fluorescent Imaging Plate Reader, Molecular Devices, Sunnyvale, Calif.) was used for the functional identification of the ligand activating RBL-2H3 cells stably expressing HOFNH30. […] After initiation of the assay, fluorescence was read every 1s for 1 min and then every 3 s for the following 1 min.

`CCCCCCCC/C=C\CCCCCCCC(=O)OC[C@@H](O)COP(=O)(O)O` [LPA, 1-Oleoyl-sn-glycero-3-phosphate]: the calcium mobilization response result is “dose dependent calcium mobilization response”.

(Values after patent US6344342B1, “Human G protein coupled lysophosphatidic acid receptor” (SmithKline Beecham Corporation, priority 1997, dated 2002).)
